# Assay results taken from ChEMBL document CHEMBL5244223, “l,8-Naphthalimide based DNA intercalators and anticancer agents. A systematic review from 2007 to 2017” (Eur J Med Chem, 2018).
# How the values were obtained:
# [1] = Antiproliferative activity against human QSG7701 cells assessed as inhibition of cell proliferation incubated for 48 hrs by MTT assay; type: toxicity, cell-based
# HepG2 = assay: Antiproliferative activity against human HepG2 cells assessed as inhibition of cell proliferation incubated for 48 hrs by MTT assay; type: functional, cell-based; settings: HepG2, 48 h
# MDA-MB-231 = assay: Antiproliferative activity against human MDA-MB-231 cells assessed as inhibition of cell proliferation incubated for 48 hrs by MTT assay; type: functional, cell-based; settings: MDA-MB-231, 48 h
# SMMC-7721 = assay: Antiproliferative activity against human SMMC-7721 cells assessed as inhibition of cell proliferation incubated for 48 hrs by MTT assay; type: functional, cell-based; settings: SMMC-7721, 48 h
# K562 [2] = assay: Antiproliferative activity against human K562 cells assessed as inhibition of cell proliferation incubated for 48 hrs by MTT assay; type: functional, cell-based; settings: K562, 48 h
# HCT-116 = assay: Antiproliferative activity against human HCT-116 cells assessed as inhibition of cell proliferation incubated for 48 hrs by MTT assay; type: functional, cell-based; settings: HCT-116, 48 h
# K562 [3] = assay: Cytotoxicity against human K562 cells assessed as inhibition of cell growth incubated for 48 hrs by MTT assay; type: functional, cell-based; settings: K562, 48 h
# A549 = assay: Cytotoxicity against human A549 cells assessed as inhibition of cell growth incubated for 48 hrs by MTT assay; type: functional, cell-based; settings: A549, 48 h
# HeLa [4] = assay: Cytotoxicity against human HeLa cells assessed as inhibition of cell growth incubated for 48 hrs by MTT assay; type: functional, cell-based
# CCRF-CEM = assay: Antiproliferative activity against human CEM cells assessed as inhibition of cell proliferation incubated for 48 hrs by coulter counter assay; type: functional, cell-based
# HeLa [5] = assay: Antiproliferative activity against human HeLa cells assessed as inhibition of cell proliferation incubated for 48 hrs by coulter counter assay; type: functional, cell-based
# [6] = Antiproliferative activity against human HMEC-1 cells assessed as inhibition of cell proliferation incubated for 48 hrs by coulter counter assay; type: toxicity, cell-based
# L1210 = assay: Antiproliferative activity against mouse L1210 cells assessed as inhibition of cell proliferation incubated for 48 hrs by coulter counter assay; type: functional, cell-based; settings: L1210, 48 h
# Calf thymus DNA = assay: Binding affinity to calf thymus DNA assessed as DNA intercalation by measuring change in melting temperature by thermal denaturation assay; type: nucleic-acid assay; settings: Bos taurus
# Staphylococcus aureus = assay: Antibacterial activity against Staphylococcus aureus MTCC 96 assessed as inhibition of bacterial growth by agar well diffusion assay; type: functional
# Escherichia coli = assay: Antibacterial activity against Escherichia coli MTCC 443 assessed as inhibition of bacterial growth by agar well diffusion assay; type: functional
# Pseudomonas aeruginosa = assay: Antibacterial activity against Pseudomonas aeruginosa MTCC 741 assessed as inhibition of bacterial growth by agar well diffusion assay; type: functional
# [7] = system: Staphylococcus epidermidis; assay: Antibacterial activity against Staphylococcus epidermidis MTCC 435 assessed as inhibition of bacterial growth by agar well diffusion assay; type: functional
# [8] = Cytotoxicity against human QSG7701 cells assessed as inhibition of cell growth incubated for 48 hrs by MTT assay; type: toxicity, cell-based
smiles,measurement,setting,value
CN(C)CCN1C(=O)c2cccc3cc(NC(=O)NCCCNCCCCN)cc(c23)C1=O,IC50 at 48 h,[1],> 50 µM
same,IC50,HepG2,> 50 µM
same,IC50,MDA-MB-231,> 50 µM
same,IC50,SMMC-7721,> 50 µM
same,IC50,K562 [2],> 50 µM
same,IC50,HCT-116,> 50 µM
CN(C)CCN1C(=O)c2cccc3cc(NC(=O)CCCN)cc(c23)C1=O,IC50,K562 [3],8.5 µM
same,IC50,A549,4.7 µM
same,IC50,HeLa [4],21.5 µM
CN(C)CCN1C(=O)c2cccc3cc(NC(=O)CCCCCNC(=O)C(Cl)Cl)cc(c23)C1=O,IC50,K562 [3],8.5 µM
same,IC50,A549,4.7 µM
same,IC50,HeLa [4],21.5 µM
CCOP(=O)(CCn1cc(CN2C(=O)c3cccc4cc([N+](=O)[O-])cc(c34)C2=O)nn1)OCC,IC50,CCRF-CEM,> 250 µM
same,IC50,HeLa [5],> 250 µM
same,IC50 at 48 h,[6],> 250 µM
same,IC50,L1210,> 250 µM
CCOP(=O)(CC(=O)NCn1cc(CN2C(=O)c3cccc4cccc(c34)C2=O)nn1)OCC,IC50,CCRF-CEM,> 250 µM
same,IC50,HeLa [5],> 250 µM
same,IC50 at 48 h,[6],> 250 µM
same,IC50,L1210,> 250 µM
CCCCCCCNC(=O)Nc1cc2c3c(cccc3c1)C(=O)N(CCN(C)C)C2=O,IC50 at 48 h,[1],> 50 µM
same,IC50,HepG2,> 50 µM
same,IC50,MDA-MB-231,> 50 µM
same,IC50,SMMC-7721,> 50 µM
same,IC50,K562 [2],> 50 µM
same,IC50,HCT-116,> 50 µM
O=C1c2cccc3cccc(c23)C(=O)N1c1nc(-c2cc3ccccc3oc2=O)cs1,ΔTm,Calf thymus DNA,0.1 °C
same,MIC,Staphylococcus aureus,18.8 µg/mL
same,MIC,Escherichia coli,18.8 µg/mL
same,MIC,Pseudomonas aeruginosa,18.8 µg/mL
same,MIC,[7],18.8 µg/mL
CCOP(=O)(Cn1cc(CN2C(=O)c3cccc4cc([N+](=O)[O-])cc(c34)C2=O)nn1)OCC,IC50,CCRF-CEM,> 250 µM
same,IC50,HeLa [5],> 250 µM
same,IC50 at 48 h,[6],> 250 µM
same,IC50,L1210,> 250 µM
CN(C)CCN1C(=O)c2cccc3cc(NC(=O)NCCCN)cc(c23)C1=O,IC50 at 48 h,[1],> 50 µM
same,IC50,HepG2,> 50 µM
same,IC50,MDA-MB-231,> 50 µM
same,IC50,SMMC-7721,> 50 µM
same,IC50,K562 [2],> 50 µM
same,IC50,HCT-116,> 50 µM
O=C1c2cccc3cccc(c23)C(=O)N1c1nc(-c2cc3cc(Br)ccc3oc2=O)cs1,ΔTm,Calf thymus DNA,0.1 °C
same,MIC,Staphylococcus aureus,18.8 µg/mL
same,MIC,Escherichia coli,18.8 µg/mL
same,MIC,Pseudomonas aeruginosa,18.8 µg/mL
same,MIC,[7],18.8 µg/mL
CCOP(=O)(CC(=O)NCn1cc(CN2C(=O)c3cccc4cc([N+](=O)[O-])cc(c34)C2=O)nn1)OCC,IC50,CCRF-CEM,> 250 µM
same,IC50,HeLa [5],> 250 µM
same,IC50 at 48 h,[6],> 250 µM
same,IC50,L1210,> 250 µM
O=C1c2ccc3c4c(ccc(c24)C(=O)N1c1nc(-c2cc4cc(Cl)cc(Cl)c4oc2=O)cs1)C(=O)N(c1nc(-c2cc4cc(Cl)cc(Cl)c4oc2=O)cs1)C3=O,ΔTm,Calf thymus DNA,0.1 °C
same,MIC,Staphylococcus aureus,18.8 µg/mL
same,MIC,Escherichia coli,18.8 µg/mL
same,MIC,Pseudomonas aeruginosa,18.8 µg/mL
same,MIC,[7],18.8 µg/mL
CCOP(=O)(CCOCn1cc(CN2C(=O)c3cccc4c(Br)ccc(c34)C2=O)nn1)OCC,IC50,CCRF-CEM,> 250 µM
same,IC50,HeLa [5],> 250 µM
same,IC50 at 48 h,[6],> 250 µM
same,IC50,L1210,> 250 µM
CN(C)CCN1C(=O)c2cccc3cc(NC(=O)CCCNC(=O)C(Cl)Cl)cc(c23)C1=O,IC50,K562 [3],8.5 µM
same,IC50,A549,4.7 µM
same,IC50,HeLa [4],21.5 µM
CCOP(=O)(Cn1cc(CN2C(=O)c3cccc4cccc(c34)C2=O)nn1)OCC,IC50,CCRF-CEM,> 250 µM
same,IC50,HeLa [5],> 250 µM
same,IC50 at 48 h,[6],> 250 µM
same,IC50,L1210,> 250 µM
CCOP(=O)(CCn1cc(CN2C(=O)c3cccc4c(Br)ccc(c34)C2=O)nn1)OCC,IC50,CCRF-CEM,> 250 µM
same,IC50,HeLa [5],> 250 µM
same,IC50 at 48 h,[6],> 250 µM
same,IC50,L1210,> 250 µM
CN(C)CCN1C(=O)c2cccc3cc(NC(=O)CNCCCCNCCCN)cc(c23)C1=O,IC50 at 48 h,[1],6.42 µM
same,IC50,HepG2,6.42 µM
same,IC50,MDA-MB-231,6.42 µM
same,IC50,SMMC-7721,6.42 µM
same,IC50,K562 [2],6.42 µM
same,IC50,HCT-116,6.42 µM
CCOP(=O)(CCn1cc(CN2C(=O)c3cccc4cccc(c34)C2=O)nn1)OCC,IC50,CCRF-CEM,> 250 µM
same,IC50,HeLa [5],> 250 µM
same,IC50 at 48 h,[6],> 250 µM
same,IC50,L1210,> 250 µM
CN(C)CCNCC(=O)Nc1cc2c3c(cccc3c1)C(=O)N(CCN(C)C)C2=O,IC50 at 48 h,[1],6.42 µM
same,IC50,HepG2,6.42 µM
same,IC50,MDA-MB-231,6.42 µM
same,IC50,SMMC-7721,6.42 µM
same,IC50,K562 [2],6.42 µM
same,IC50,HCT-116,6.42 µM
NCCCNCCCCNCCCN1C(=O)c2cccc3cccc(c23)C1=O,IC50 at 48 h,[8],> 50 µM
CCOP(=O)(CCCCn1cc(CN2C(=O)c3cccc4cc([N+](=O)[O-])cc(c34)C2=O)nn1)OCC,IC50,CCRF-CEM,> 250 µM
same,IC50,HeLa [5],> 250 µM
same,IC50 at 48 h,[6],> 250 µM
same,IC50,L1210,> 250 µM
CN(C)CCN1C(=O)c2cccc3cc(NC(=O)CCCCCN)cc(c23)C1=O,IC50,K562 [3],8.5 µM
same,IC50,A549,4.7 µM
same,IC50,HeLa [4],21.5 µM
